Measurements reported in article PMC7101356, “Cross-site and cross-platform variability of automated patch clamp assessments of drug effects on human cardiac currents in recombinant cells” (Scientific Reports, 2020).

Key:
hERG = hERG (Homo sapiens, UniProt Q12809); assay: Automated patch clamp, hERG current block, Milnes protocol (site s06); type: cell-based; parameters: expressed in transfected cells; host or cells: HEK293 or CHO, depending on site (site s06, Milnes protocol: HEK293); settings: s06_p4, HEK293, 22–24 °C, read-out: hERG K+ current log IC50 (converted)
Sequence of hERG (Q12809 whole entry): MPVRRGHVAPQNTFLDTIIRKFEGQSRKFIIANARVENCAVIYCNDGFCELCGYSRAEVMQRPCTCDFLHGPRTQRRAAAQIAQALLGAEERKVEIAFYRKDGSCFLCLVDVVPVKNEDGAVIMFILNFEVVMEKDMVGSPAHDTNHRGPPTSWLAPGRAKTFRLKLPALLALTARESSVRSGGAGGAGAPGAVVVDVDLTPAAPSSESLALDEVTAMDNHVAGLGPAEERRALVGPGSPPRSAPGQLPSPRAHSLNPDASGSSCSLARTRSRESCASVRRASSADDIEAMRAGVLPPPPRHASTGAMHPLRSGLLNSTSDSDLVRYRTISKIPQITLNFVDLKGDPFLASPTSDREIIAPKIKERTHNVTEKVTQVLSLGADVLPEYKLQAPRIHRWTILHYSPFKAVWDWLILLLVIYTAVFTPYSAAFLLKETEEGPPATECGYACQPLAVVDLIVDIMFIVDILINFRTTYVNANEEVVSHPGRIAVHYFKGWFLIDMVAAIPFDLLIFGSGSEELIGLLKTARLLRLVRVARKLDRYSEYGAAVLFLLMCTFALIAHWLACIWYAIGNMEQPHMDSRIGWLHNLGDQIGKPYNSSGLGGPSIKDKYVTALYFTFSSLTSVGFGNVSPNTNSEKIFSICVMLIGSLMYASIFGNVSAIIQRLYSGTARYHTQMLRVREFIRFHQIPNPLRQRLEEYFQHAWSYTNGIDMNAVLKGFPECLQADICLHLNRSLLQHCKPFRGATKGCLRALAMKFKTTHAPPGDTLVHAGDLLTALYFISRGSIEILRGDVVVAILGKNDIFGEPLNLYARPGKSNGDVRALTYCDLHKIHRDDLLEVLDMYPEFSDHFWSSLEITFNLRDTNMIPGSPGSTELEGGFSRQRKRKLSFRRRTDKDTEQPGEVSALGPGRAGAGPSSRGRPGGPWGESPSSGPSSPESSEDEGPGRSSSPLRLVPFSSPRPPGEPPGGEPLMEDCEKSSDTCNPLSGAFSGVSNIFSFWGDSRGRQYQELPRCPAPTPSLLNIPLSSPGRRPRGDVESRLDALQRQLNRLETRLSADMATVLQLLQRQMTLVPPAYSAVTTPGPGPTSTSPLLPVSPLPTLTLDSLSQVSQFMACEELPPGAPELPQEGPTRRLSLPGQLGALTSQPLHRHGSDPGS
From the text: Thus, a single test site (s06) elicited hERG current with a 10-s depolarizing voltage step from −80 mV to 0 mV every 25 s (Milnes protocol, see Milnes et al.[14]).
The steady state current at each concentration was used to determine the concentration-response relationships. Mean concentration-response data were fitted to a standard sigmoidal four-parameter logistic equation (GraphPad Prism 7; GraphPad Inc., La Jolla, CA) of the form: Y=Bottom+(Top−Bottom)/(1+10^∧(LogIC50−X)∗HillSlope) where Y is the current inhibition (in % of pre-drug control), X is the logarithm of drug concentration, and IC50 is the drug concentration producing half-maximal current inhibition. Curve fitting was performed using the following constraints: Top = 100%, Bottom = 0%, Hill Slope <2. No curve fitting was performed in cases with an obvious lack of a concentration-dependent current inhibition and/or small effect size (approximately ≤20%).
This protocol consists of a set of two 25-s-long pulse protocols, with one protocol (“Pulse”) containing a prolonged 10-s-long depolarizing test pulse (0 mV) followed by a 14-s-long return pulse to −80 mV, and a second protocol “No-Pulse” consisting of the same pulse structure without the depolarizing test pulse[18].

peak hNav1.5 = target: T1, peak hNav1.5 (Homo sapiens, UniProt Q14524); assay: Automated patch clamp, peak hNav1.5 current block; type: cell-based
T1 construct: expressed in transfected cells; host or cells: HEK293 or CHO, depending on site

hCav1.2 = hCav1.2 (Homo sapiens, UniProt Q13936); assay: Automated patch clamp, hCav1.2 current block; settings: for IC50: log IC50, half-maximal inhibitory concentration
Sequence of hCav1.2 (Q13936 whole entry): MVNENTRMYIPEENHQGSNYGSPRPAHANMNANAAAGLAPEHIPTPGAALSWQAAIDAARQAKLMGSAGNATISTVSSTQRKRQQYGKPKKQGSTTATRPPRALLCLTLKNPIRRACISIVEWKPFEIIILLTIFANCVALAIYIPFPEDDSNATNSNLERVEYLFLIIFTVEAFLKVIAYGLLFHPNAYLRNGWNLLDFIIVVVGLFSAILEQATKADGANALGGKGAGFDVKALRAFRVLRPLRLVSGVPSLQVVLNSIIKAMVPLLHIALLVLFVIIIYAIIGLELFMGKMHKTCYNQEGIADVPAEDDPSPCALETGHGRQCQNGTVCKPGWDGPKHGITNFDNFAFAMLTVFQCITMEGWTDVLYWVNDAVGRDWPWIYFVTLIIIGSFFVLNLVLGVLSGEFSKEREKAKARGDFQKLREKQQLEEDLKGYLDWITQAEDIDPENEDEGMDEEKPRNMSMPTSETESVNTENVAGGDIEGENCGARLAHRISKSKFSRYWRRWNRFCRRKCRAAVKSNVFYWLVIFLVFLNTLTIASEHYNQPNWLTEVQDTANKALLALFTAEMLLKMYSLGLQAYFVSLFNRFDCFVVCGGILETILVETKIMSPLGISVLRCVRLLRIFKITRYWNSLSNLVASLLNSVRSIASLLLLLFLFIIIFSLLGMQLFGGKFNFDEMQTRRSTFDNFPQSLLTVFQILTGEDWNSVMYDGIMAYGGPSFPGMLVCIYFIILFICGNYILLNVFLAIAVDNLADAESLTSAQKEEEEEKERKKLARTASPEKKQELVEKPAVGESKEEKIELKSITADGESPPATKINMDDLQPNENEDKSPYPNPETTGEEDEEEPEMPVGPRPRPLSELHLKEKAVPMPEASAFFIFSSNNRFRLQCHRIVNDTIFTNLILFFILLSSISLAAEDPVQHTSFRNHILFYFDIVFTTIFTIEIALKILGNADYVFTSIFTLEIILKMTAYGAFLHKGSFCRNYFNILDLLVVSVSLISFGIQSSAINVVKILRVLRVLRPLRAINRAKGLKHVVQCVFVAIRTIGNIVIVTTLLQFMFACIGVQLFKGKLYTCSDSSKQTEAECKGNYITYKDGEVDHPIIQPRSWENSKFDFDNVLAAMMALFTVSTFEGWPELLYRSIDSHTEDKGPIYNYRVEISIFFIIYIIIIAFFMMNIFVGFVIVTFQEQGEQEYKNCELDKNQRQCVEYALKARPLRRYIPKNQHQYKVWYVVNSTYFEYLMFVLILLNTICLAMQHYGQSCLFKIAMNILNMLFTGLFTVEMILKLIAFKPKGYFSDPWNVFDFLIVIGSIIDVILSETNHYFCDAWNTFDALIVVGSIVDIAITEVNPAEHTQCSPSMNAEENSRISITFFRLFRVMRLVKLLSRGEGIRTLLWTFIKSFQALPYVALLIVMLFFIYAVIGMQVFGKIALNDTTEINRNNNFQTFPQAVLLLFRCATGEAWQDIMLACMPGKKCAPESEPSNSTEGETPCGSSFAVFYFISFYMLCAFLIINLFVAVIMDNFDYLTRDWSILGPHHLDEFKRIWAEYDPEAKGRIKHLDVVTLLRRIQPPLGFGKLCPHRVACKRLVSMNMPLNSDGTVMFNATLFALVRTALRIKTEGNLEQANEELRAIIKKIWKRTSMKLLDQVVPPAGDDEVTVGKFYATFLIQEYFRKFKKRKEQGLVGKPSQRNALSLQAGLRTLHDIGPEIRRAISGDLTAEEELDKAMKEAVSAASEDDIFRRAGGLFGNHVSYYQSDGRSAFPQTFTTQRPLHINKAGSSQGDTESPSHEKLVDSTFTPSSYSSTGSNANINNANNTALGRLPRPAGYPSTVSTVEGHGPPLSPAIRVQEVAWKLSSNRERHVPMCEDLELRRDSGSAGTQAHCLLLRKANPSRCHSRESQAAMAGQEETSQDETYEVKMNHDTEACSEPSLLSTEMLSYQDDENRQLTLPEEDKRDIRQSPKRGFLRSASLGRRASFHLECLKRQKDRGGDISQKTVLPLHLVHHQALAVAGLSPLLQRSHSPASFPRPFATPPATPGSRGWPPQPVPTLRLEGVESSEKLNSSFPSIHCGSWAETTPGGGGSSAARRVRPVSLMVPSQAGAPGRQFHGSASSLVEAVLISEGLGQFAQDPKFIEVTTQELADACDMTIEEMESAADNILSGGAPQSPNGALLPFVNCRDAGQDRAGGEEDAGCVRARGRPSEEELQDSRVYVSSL
Sequence of hCav1.2 (Q08289 whole entry partner): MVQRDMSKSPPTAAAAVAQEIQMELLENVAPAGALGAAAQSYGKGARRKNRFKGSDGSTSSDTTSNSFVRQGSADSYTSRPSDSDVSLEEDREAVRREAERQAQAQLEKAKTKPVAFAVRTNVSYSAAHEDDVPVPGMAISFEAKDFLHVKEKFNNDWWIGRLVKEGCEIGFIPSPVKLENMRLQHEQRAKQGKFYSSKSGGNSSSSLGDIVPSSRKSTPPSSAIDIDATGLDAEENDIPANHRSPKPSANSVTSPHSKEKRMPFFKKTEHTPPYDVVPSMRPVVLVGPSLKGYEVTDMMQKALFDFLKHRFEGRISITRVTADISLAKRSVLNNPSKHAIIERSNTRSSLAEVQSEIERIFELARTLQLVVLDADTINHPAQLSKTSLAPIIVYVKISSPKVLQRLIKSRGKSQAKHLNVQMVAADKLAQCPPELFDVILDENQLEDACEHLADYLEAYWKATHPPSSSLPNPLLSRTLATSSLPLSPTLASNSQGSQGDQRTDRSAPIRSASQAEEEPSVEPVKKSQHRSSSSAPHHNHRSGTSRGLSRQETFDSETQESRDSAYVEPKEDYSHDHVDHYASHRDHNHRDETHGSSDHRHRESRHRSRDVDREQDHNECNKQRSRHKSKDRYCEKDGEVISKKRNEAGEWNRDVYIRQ
Sequence of hCav1.2 (P54289 25-956 partner limits assumed): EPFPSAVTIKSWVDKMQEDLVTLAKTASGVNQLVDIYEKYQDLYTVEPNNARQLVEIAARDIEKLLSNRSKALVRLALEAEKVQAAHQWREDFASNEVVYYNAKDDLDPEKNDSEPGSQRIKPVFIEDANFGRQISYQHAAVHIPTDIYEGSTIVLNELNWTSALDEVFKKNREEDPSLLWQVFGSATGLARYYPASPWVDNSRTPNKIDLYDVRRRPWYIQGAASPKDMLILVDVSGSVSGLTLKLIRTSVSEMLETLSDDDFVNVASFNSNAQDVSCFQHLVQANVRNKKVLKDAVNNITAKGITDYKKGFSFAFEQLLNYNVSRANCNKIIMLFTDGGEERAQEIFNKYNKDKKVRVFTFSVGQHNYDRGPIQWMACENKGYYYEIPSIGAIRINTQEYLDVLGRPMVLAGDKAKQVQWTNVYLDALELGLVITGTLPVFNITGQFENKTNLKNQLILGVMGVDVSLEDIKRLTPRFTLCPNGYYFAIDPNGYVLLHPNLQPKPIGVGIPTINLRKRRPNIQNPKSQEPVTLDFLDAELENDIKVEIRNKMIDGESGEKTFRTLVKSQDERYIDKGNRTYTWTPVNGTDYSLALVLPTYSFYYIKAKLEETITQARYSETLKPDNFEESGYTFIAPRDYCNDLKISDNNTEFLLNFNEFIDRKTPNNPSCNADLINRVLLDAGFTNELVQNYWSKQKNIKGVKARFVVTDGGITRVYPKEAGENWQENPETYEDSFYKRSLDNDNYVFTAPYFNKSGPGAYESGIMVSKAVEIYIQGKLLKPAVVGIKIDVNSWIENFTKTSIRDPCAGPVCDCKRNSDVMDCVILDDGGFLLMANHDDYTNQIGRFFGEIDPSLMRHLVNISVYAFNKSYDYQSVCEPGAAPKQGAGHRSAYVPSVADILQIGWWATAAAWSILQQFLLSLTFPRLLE
Sequence of hCav1.2 (P54289 957-1103 partner limits assumed): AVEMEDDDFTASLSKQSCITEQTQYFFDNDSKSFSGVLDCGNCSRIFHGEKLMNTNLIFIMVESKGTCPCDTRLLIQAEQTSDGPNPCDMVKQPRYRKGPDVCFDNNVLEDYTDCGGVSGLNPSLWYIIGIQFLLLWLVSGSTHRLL

For `Cc1cccc(C)c1OCC(C)N` (stereo not shown) [mex, mexiletine], the IC50 (hERG) was 37.2 µM, the “hNav1.5 IC50 variability (25/75 percentiles)” value (peak hNav1.5; across sites and platforms) was 4 fold and the “nH (Hill slope), peak hNav1.5 Na+ current inhibition” value (peak hNav1.5; site_platform s01_p1) was 0.31. For the same molecule, the “Peak hNav1.5 Na+ current inhibition, Mean” value (peak hNav1.5; site_platform s01_p1, 1.00E-04 mol/L) was 89.8%, the “Peak hNav1.5 Na+ current inhibition, Mean” value (peak hNav1.5; site_platform s01_p1, 1.00E-06 mol/L) was 57.9% and the “nH (Hill slope), peak hNav1.5 Na+ current inhibition” value (peak hNav1.5; site_platform s02_p2) was 0.99. The “Peak hNav1.5 Na+ current inhibition, Mean” value (peak hNav1.5; site_platform s02_p2, 1.00E-04 mol/L) was 54.9%, the “Peak hNav1.5 Na+ current inhibition, Mean” value (peak hNav1.5; site_platform s02_p2, 1.00E-06 mol/L) was -1.5% and the “nH (Hill slope), peak hNav1.5 Na+ current inhibition” value (peak hNav1.5; site_platform s04_p3) was 0.51. The “Peak hNav1.5 Na+ current inhibition, Mean” value (peak hNav1.5; site_platform s04_p3, 1.00E-04 mol/L) was 47.7%, the “Peak hNav1.5 Na+ current inhibition, Mean” value (peak hNav1.5; site_platform s04_p3, 1.00E-06 mol/L) was 8.8% and the “nH (Hill slope), peak hNav1.5 Na+ current inhibition” value (peak hNav1.5; site_platform s06_p4) was 1.28. The “Peak hNav1.5 Na+ current inhibition, Mean” value (peak hNav1.5; site_platform s06_p4, 1.00E-04 mol/L) was 62.4%, the “Peak hNav1.5 Na+ current inhibition, Mean” value (peak hNav1.5; site_platform s06_p4, 1.00E-06 mol/L) was 2.4% and the “nH (Hill slope), peak hNav1.5 Na+ current inhibition” value (peak hNav1.5; site_platform s07_p6) was 0.86. For the same molecule, the “Peak hNav1.5 Na+ current inhibition, Mean” value (peak hNav1.5; site_platform s07_p6, 1.00E-04 mol/L) was 79.8%, the “Peak hNav1.5 Na+ current inhibition, Mean” value (peak hNav1.5; site_platform s07_p6, 1.00E-06 mol/L) was 7.1% and the “nH, Hill slope, peak hNav1.5 inhibition” value (peak hNav1.5; site_platform s10_p3) was 0.84. The “Peak hNav1.5 Na+ current inhibition, Mean” value (peak hNav1.5; site_platform s10_p3, 1.00E-04 mol/L) was 53.9%, the “Peak hNav1.5 Na+ current inhibition, Mean” value (peak hNav1.5; site_platform s10_p3, 1.00E-06 mol/L) was 6.6% and the “nH, Hill slope, peak hNav1.5 inhibition” value (peak hNav1.5; site_platform s11_p1) was 0.56. The “Peak hNav1.5 Na+ current inhibition, Mean” value (peak hNav1.5; site_platform s11_p1, 1.00E-04 mol/L) was 50.8%, the “Peak hNav1.5 Na+ current inhibition, Mean” value (peak hNav1.5; site_platform s11_p1, 1.00E-06 mol/L) was 10.7% and the “nH, Hill slope, peak hNav1.5 inhibition” value (peak hNav1.5; site_platform s12_p2) was 0.72. The “Peak hNav1.5 Na+ current inhibition, Mean” value (peak hNav1.5; site_platform s12_p2, 1.00E-04 mol/L) was 58.7%, the “Peak hNav1.5 Na+ current inhibition, Mean” value (peak hNav1.5; site_platform s12_p2, 1.00E-06 mol/L) was 4.9% and the “nH, Hill slope, peak hNav1.5 inhibition” value (peak hNav1.5; site_platform s13_p2) was 0.89. For the same molecule, the “Peak hNav1.5 Na+ current inhibition, Mean” value (peak hNav1.5; site_platform s13_p2, 1.00E-04 mol/L) was 50.5%, the “Peak hNav1.5 Na+ current inhibition, Mean” value (peak hNav1.5; site_platform s13_p2, 1.00E-06 mol/L) was 2.3% and the “nH, Hill slope, peak hNav1.5 inhibition” value (peak hNav1.5; site_platform s14_p1) was 0.84. The “Peak hNav1.5 Na+ current inhibition, Mean” value (peak hNav1.5; site_platform s14_p1, 1.00E-04 mol/L) was 65.7%, the “Peak hNav1.5 Na+ current inhibition, Mean” value (peak hNav1.5; site_platform s14_p1, 1.00E-06 mol/L) was 6.3% and the “nH, Hill slope, peak hNav1.5 inhibition” value (peak hNav1.5; site_platform s15_p1) was 0.56. The “Peak hNav1.5 Na+ current inhibition, Mean” value (peak hNav1.5; site_platform s15_p1, 1.00E-04 mol/L) was 88.2%, the “Peak hNav1.5 Na+ current inhibition, Mean” value (peak hNav1.5; site_platform s15_p1, 1.00E-06 mol/L) was 30.6% and the “nH, Hill slope, peak hNav1.5 inhibition” value (peak hNav1.5; site_platform s16_p3) was 0.69. The “Peak hNav1.5 Na+ current inhibition, Mean” value (peak hNav1.5; site_platform s16_p3, 1.00E-04 mol/L) was 43.0%, the “Peak hNav1.5 Na+ current inhibition, Mean” value (peak hNav1.5; site_platform s16_p3, 1.00E-06 mol/L) was 5.6% and the “nH, Hill slope, peak hNav1.5 inhibition” value (peak hNav1.5; site_platform s17_p1) was 0.83. For the same molecule, the “Peak hNav1.5 Na+ current inhibition, Mean” value (peak hNav1.5; site_platform s17_p1, 1.00E-04 mol/L) was 75.6%, the “Peak hNav1.5 Na+ current inhibition, Mean” value (peak hNav1.5; site_platform s17_p1, 1.00E-06 mol/L) was 10.3% and the “nH, Hill slope, peak hNav1.5 inhibition” value (peak hNav1.5; site_platform s18_p1) was 0.98. The “Peak hNav1.5 Na+ current inhibition, Mean” value (peak hNav1.5; site_platform s18_p1, 1.00E-04 mol/L) was 83.9%, the “Peak hNav1.5 Na+ current inhibition, Mean” value (peak hNav1.5; site_platform s18_p1, 1.00E-06 mol/L) was 6.1% and the “nH, Hill slope, peak hNav1.5 inhibition” value (peak hNav1.5; site_platform s19_p3) was 0.51. For the same molecule, the “Peak hNav1.5 Na+ current inhibition, Mean” value (peak hNav1.5; site_platform s19_p3, 1.00E-04 mol/L) was 55.6%, the “Peak hNav1.5 Na+ current inhibition, Mean” value (peak hNav1.5; site_platform s19_p3, 1.00E-06 mol/L) was 12.4% and the IC50 (hCav1.2; site s01_p1) was 372 µM. It also gave an IC50 (hCav1.2; site s06_p4) of 178 µM, an IC50 (hCav1.2; site s14_p1) of 234 µM and an IC50 (hCav1.2; site s16_p3) of 251 µM. The IC50 (hCav1.2; site s18_p1) was 162 µM, the “nH, Hill slope” value (hCav1.2; site s01_p1) was 0.60 and the “Peak hCav1.2 Ca2+ current inhibition, Mean” value (hCav1.2; site s01_p1, 1.00E-04 mol/L) was 34.0%. The “Peak hCav1.2 Ca2+ current inhibition, Mean” value (hCav1.2; site s01_p1, 1.00E-06 mol/L) was 10.1%, the “log IC50, half-maximal inhibitory concentration” value (hCav1.2; site s02_p2, corrected for rundown) was “no inh” and the “Peak hCav1.2 Ca2+ current inhibition, Mean” value (hCav1.2; site s02_p2, corrected for rundown, 1.00E-04 mol/L) was 1.8%. For the same molecule, the “Peak hCav1.2 Ca2+ current inhibition, Mean” value (hCav1.2; site s02_p2, corrected for rundown, 1.00E-06 mol/L) was -11.1%, the “nH, Hill slope” value (hCav1.2; site s06_p4) was 0.87 and the “Peak hCav1.2 Ca2+ current inhibition, Mean” value (hCav1.2; site s06_p4, 1.00E-04 mol/L) was 39.1%. For the same molecule, the “Peak hCav1.2 Ca2+ current inhibition, Mean” value (hCav1.2; site s06_p4, 1.00E-06 mol/L) was 0.5%, the “log IC50, half-maximal inhibitory concentration” value (hCav1.2; site s11_p1) was “no inh” and the “Peak hCav1.2 Ca2+ current inhibition, Mean” value (hCav1.2; site s11_p1, 1.00E-04 mol/L) was 22.9%. For the same molecule, the “Peak hCav1.2 Ca2+ current inhibition, Mean” value (hCav1.2; site s11_p1, 1.00E-06 mol/L) was 12.9%, the “nH, Hill slope” value (hCav1.2; site s14_p1) was 2.00 and the “Peak hCav1.2 Ca2+ current inhibition, Mean” value (hCav1.2; site s14_p1, 1.00E-04 mol/L) was 16.2%. The “Peak hCav1.2 Ca2+ current inhibition, Mean” value (hCav1.2; site s14_p1, 1.00E-06 mol/L) was -17.7%, the “nH, Hill slope” value (hCav1.2; site s16_p3) was 0.80 and the “Peak hCav1.2 Ca2+ current inhibition, Mean” value (hCav1.2; site s16_p3, 1.00E-04 mol/L) was 31.7%. The “Peak hCav1.2 Ca2+ current inhibition, Mean” value (hCav1.2; site s16_p3, 1.00E-06 mol/L) was -0.3%, the “nH, Hill slope” value (hCav1.2; site s18_p1) was 1.07 and the “Peak hCav1.2 Ca2+ current inhibition, Mean” value (hCav1.2; site s18_p1, 1.00E-04 mol/L) was 35.7%. For the same molecule, the “Peak hCav1.2 Ca2+ current inhibition, Mean” value (hCav1.2; site s18_p1, 1.00E-06 mol/L) was 2.3%.
